Data on 1 compound can be found in article PMC9359912, “Pathogenic bacteria remodel central metabolic enzyme to build a cyclopropanol warhead” (Nature Chemistry, 2022).

Molecules are shown by their SMILES.

The assay deals with T1, BurG (Burkholderia thailandensis, UniProt Q2T3G7).
T1 construct: gene ilvC-2

As for `NC(=O)C1=CN([C@@H]2O[C@H](COP(=O)(O)OP(=O)(O)OC[C@H]3O[C@@H](n4cnc5c(N)ncnc54)[C@H](O)[C@@H]3O)[C@@H](O)[C@H]2O)C=CC1` [NADH], the “X-ray co-crystal structure, 2.05 Å” value was “complexed between the two magnesium atoms and NADH in the active site”.
